In patent US11807625B2, “Capsid inhibitors for the prevention of HIV” (Gilead Sciences, Inc., priority 2019, dated 2023):
Like-named read-outs stand apart in the source and are kept apart here.

Assay: PK of compound of Formula (Ia) after single subcutaneous dose of solution formulations in Wistar Han rats
Type: in vivo
Conditions: male, Wistar Han, rat, plasma, mean ± SD, SC 50 mg/kg; for AUC(0-t) / Cmax: sc, 50 mg/kg
Experimental: Formulations containing the compound of Formula (Ia), or a pharmaceutically acceptable salt thereof, were prepared as solutions and optionally administered subcutaneously or intramuscularly to rats, rabbits, and/or dogs.
A solution of about 400 mg/mL of the compound of Formula (Ia) having 19.14 w/w % water, 40.66 w/w % PEG 300, 35.20 w/w % of a sodium salt of a compound of Formula (Ia), and 5.00% ethanol was prepared. The solution was administered subcutaneously to male Wistar Han rats at a dose level of about 50 mg/kg and dose volume of 0.125 mL/kg and the pharmacokinetic (PK) profile was determined.
A solution of about 500 mg/mL of the compound of Formula (Ia) having 16.64 w/w % water, 35.36 w/w % PEG 300, 43.00 w/w % of a sodium salt of a compound of Formula (Ia), and 5.00% ethanol was prepared. The solution was administered subcutaneously to male Wistar Han rats at a dose level of about 50 mg/kg and dose volume of 0.1 mL/kg and the pharmacokinetic (PK) profile was determined.
A solution of about 400 mg/mL of the compound of Formula (Ia) having 17.00 w/w % water, 36.40 w/w % PEG 300, 35.20 w/w % of a sodium salt of a compound of Formula (Ia), 5.00 w/w % ethanol, and 6.40 w/w % poloxamer 188 was prepared. The solution was administered subcutaneously to male beagle dogs at a dose level of about 12 mg/kg and male Wistar Han rats at a dose level of about 50 mg/kg. The pharmacokinetic profiles were determined, and the results for dogs are summarized in Table and Table, while the results for rats are summarized in Table and Table below.
A solution of about 500 mg/mL of the compound of Formula (Ia) having 14.06 w/w % water, 30.12 w/w % PEG 300, […] of a sodium salt of a compound of Formula (Ia), 5.00 w/w % ethanol, and 6.40 w/w % poloxamer 188 was prepared. The solution was administered subcutaneously to male beagle dogs at a dose level of about 12 mg/kg and male Wistar Han rats at a dose level of about 50 mg/kg. The pharmacokinetic profiles were determined, and the results for dogs are summarized in Table and Table, while the results for rats are summarized in Table and Table below.
A solution of about 300 mg/mL of the compound of Formula (Ia) having 23.33 w/w % water, 48.99 w/w % PEG 300, 26.47 w/w % of a sodium salt of a compound of Formula (Ia), and 1.21 w/w % poloxamer 188 was prepared. The solution was administered subcutaneously to male beagle dogs at a dose level of about 6 mg/kg and male Wistar Han rats at a dose level of about 50 mg/kg. The pharmacokinetic profiles were determined, and the results for dogs are summarized in Table and Table, while the results for rats are summarized in Table and Table below.
A solution of about 400 mg/mL of the compound of Formula (Ia) having 18.80 w/w % water, 40.25 w/w % PEG 300, 34.38 w/w % of a sodium salt of a compound of Formula (Ia), 5.00 w/w % ethanol, and 1.57 w/w % poloxamer 188 was prepared. The solution was administered subcutaneously to male beagle dogs at a dose level of about 12 mg/kg and male Wistar Han rats at a dose level of about 50 mg/kg. The pharmacokinetic profiles were determined, and the results for dogs are summarized in Table and Table, while the results for rats are summarized in Table and Table below.
A solution of about 500 mg/mL of the compound of Formula (Ia) having 16.29 w/w % water, 34.88 w/w % PEG 300, 41.92 w/w % of a sodium salt of a compound of Formula (Ia), 5.00 w/w % ethanol, and 1.91 w/w % poloxamer 188 was prepared. The solution was administered subcutaneously to male beagle dogs at a dose level of about 12 mg/kg and male Wistar Han rats at a dose level of about 50 mg/kg. The pharmacokinetic profiles were determined, and the results for dogs are summarized in Table and Table, while the results for rats are summarized in Table and Table below.
A solution of about 400 mg/mL of the compound of Formula (Ia) having 20.90 w/w % water, 44.72 w/w % PEG 300, and 34.38 w/w % of a sodium salt of a compound of Formula (Ia) was prepared. […]

[1] = n = 5 rats, solution T, 400 mg/mL

CC(C)(C#Cc1ccc(-c2ccc(Cl)c3c(NS(C)(=O)=O)nn(CC(F)(F)F)c23)c([C@H](Cc2cc(F)cc(F)c2)NC(=O)Cn2nc(C(F)(F)F)c3c2C(F)(F)[C@@H]2C[C@H]32)n1)S(C)(=O)=O [compound of Formula (Ia)]
AUC(0-t) (n = 3 rats, solution R, 400 mg/mL, read-out: AUC0-1344h): 402 ± 58 µM·h | AUC(0-t) (n = 3 rats, solution R, 400 mg/mL, read-out: AUC0-1680h): 504 ± 80 µM·h | AUC(0-t) (n = 3 rats, solution R, 400 mg/mL, read-out: AUC0-2352h): 649 ± 95 µM·h | AUC(0-t) (n = 3 rats, solution R, 400 mg/mL, read-out: AUC0-3024h): 752 ± 92 µM·h | AUC(0-t) (n = 3 rats, solution R, 400 mg/mL, read-out: AUC0-3696h): 825 ± 80 µM·h | AUC(0-t) (n = 3 rats, solution R, 400 mg/mL, read-out: AUC0-4704h): 915 ± 44 µM·h | AUC(0-t) (n = 3 rats, solution R, 400 mg/mL, read-out: AUC0-5376h): 958 ± 21 µM·h | AUC(0-t) (n = 3 rats, solution R, 400 mg/mL, read-out: AUC0-6048h): 988 ± 4 µM·h | AUC(0-t) (n = 3 rats, solution R, 400 mg/mL, read-out: AUC0-7392h): 1020 ± 18 µM·h | AUC(0-t) (n = 3 rats, solution R, 400 mg/mL, read-out: AUC0-8064h): 1030 ± 25 µM·h | Cmax (n = 3 rats, solution S, 500 mg/mL): 0.328 ± 0.131 µM | AUC(0-t) (n = 3 rats, solution S, 500 mg/mL, read-out: AUC0-24 h): 2.47 ± 0.39 µM·h | AUC(0-t) (n = 3 rats, solution S, 500 mg/mL, read-out: AUC0-168 h): 19.7 ± 3.1 µM·h | AUC(0-t) (n = 3 rats, solution S, 500 mg/mL, read-out: AUC0-336 h): 44.2 ± 7.5 µM·h | AUC(0-t) (n = 3 rats, solution S, 500 mg/mL, read-out: AUC0-672 h): 133 ± 40 µM·h | AUC(0-t) (n = 3 rats, solution S, 500 mg/mL, read-out: AUC0-1008 h): 233 ± 79 µM·h | AUC(0-t) (n = 3 rats, solution S, 500 mg/mL, read-out: AUC0-1344 h): 334 ± 120 µM·h | AUC(0-t) (n = 3 rats, solution S, 500 mg/mL, read-out: AUC0-1680 h): 426 ± 148 µM·h | AUC(0-t) (n = 3 rats, solution S, 500 mg/mL, read-out: AUC0-2352 h): 554 ± 185 µM·h | AUC(0-t) (n = 3 rats, solution S, 500 mg/mL, read-out: AUC0-3024 h): 652 ± 203 µM·h | AUC(0-t) (n = 3 rats, solution S, 500 mg/mL, read-out: AUC0-3696 h): 722 ± 216 µM·h | AUC(0-t) (n = 3 rats, solution S, 500 mg/mL, read-out: AUC0-4704 h): 817 ± 224 µM·h | AUC(0-t) (n = 3 rats, solution S, 500 mg/mL, read-out: AUC0-5376 h): 861 ± 226 µM·h | AUC(0-t) (n = 3 rats, solution S, 500 mg/mL, read-out: AUC0-6048 h): 896 ± 220 µM·h | AUC(0-t) (n = 3 rats, solution S, 500 mg/mL, read-out: AUC0-6720 h): 923 ± 229 µM·h | AUC(0-t) (n = 3 rats, solution S, 500 mg/mL, read-out: AUC0-7392 h): 945 ± 229 µM·h | AUC(0-t) (n = 3 rats, solution S, 500 mg/mL, read-out: AUC0-8064 h): 964 ± 228 µM·h | AUC(0-t) (n = 3 rats, solution V, 300 mg/mL, read-out: AUC0-24 h): 3.66 ± 4.29 µM·h | AUC(0-t) (n = 3 rats, solution V, 300 mg/mL, read-out: AUC0-168 h): 24.5 ± 5.4 µM·h | AUC(0-t) (n = 3 rats, solution V, 300 mg/mL, read-out: AUC0-336 h): 50.1 ± 9.2 µM·h | AUC(0-t) (n = 3 rats, solution V, 300 mg/mL, read-out: AUC0-672 h): 137 ± 27 µM·h | AUC(0-t) (n = 3 rats, solution V, 300 mg/mL, read-out: AUC0-1008 h): 237 ± 52 µM·h | AUC(0-t) (n = 3 rats, solution V, 300 mg/mL, read-out: AUC0-1344 h): 331 ± 85 µM·h | AUC(0-t) (n = 3 rats, solution V, 300 mg/mL, read-out: AUC0-1680 h): 423 ± 96 µM·h | AUC(0-t) (n = 3 rats, solution V, 300 mg/mL, read-out: AUC0-2352 h): 554 ± 113 µM·h | AUC(0-t) (n = 3 rats, solution V, 300 mg/mL, read-out: AUC0-3024 h): 646 ± 121 µM·h | AUC(0-t) (n = 3 rats, solution V, 300 mg/mL, read-out: AUC0-3696 h): 700 ± 121 µM·h | AUC(0-t) (n = 3 rats, solution V, 300 mg/mL, read-out: AUC0-4704 h): 720 ± 120 µM·h | Cmax [1]: 0.45 ± 0.155 µM | AUC(0-t) (n = 5 rats, solution T, 400 mg/mL, read-out: AUC0-24 h): 5.49 ± 1.6 µM·h | AUC(0-t) (n = 5 rats, solution T, 400 mg/mL, read-out: AUC0-168 h): 40.6 ± 15.3 µM·h | AUC(0-t) (n = 5 rats, solution T, 400 mg/mL, read-out: AUC0-336 h): 76.4 ± 25.3 µM·h | AUC(0-t) (n = 5 rats, solution T, 400 mg/mL, read-out: AUC0-672 h): 173 ± 75.6 µM·h | AUC(0-t) (n = 5 rats, solution T, 400 mg/mL, read-out: AUC0-1008 h): 313 ± 157 µM·h | AUC(0-t) (n = 5 rats, solution T, 400 mg/mL, read-out: AUC0-1344 h): 394 ± 185 µM·h | AUC(0-t) (n = 5 rats, solution T, 400 mg/mL, read-out: AUC0-1680 h): 485 ± 195 µM·h | AUC(0-t) (n = 5 rats, solution T, 400 mg/mL, read-out: AUC0-2352 h): 581 ± 146 µM·h | AUC(0-t) (n = 5 rats, solution T, 400 mg/mL, read-out: AUC0-3024 h): 655 ± 112 µM·h | AUC(0-t) (n = 5 rats, solution T, 400 mg/mL, read-out: AUC0-3696 h): 679 ± 103 µM·h | AUC(0-t) (n = 5 rats, solution T, 400 mg/mL, read-out: AUC0-4704 h): 718 ± 88 µM·h | AUC(0-t) (n = 5 rats, solution T, 400 mg/mL, read-out: AUC0-5376 h): 745 ± 76 µM·h | AUC(0-t) (n = 5 rats, solution T, 400 mg/mL, read-out: AUC0-6048 h): 766 ± 66 µM·h | AUC(0-t) (n = 5 rats, solution T, 400 mg/mL, read-out: AUC0-6720 h): 783 ± 59 µM·h | Cmax (n = 5 rats, solution U, 500 mg/mL): 0.362 ± 0.147 µM | AUC(0-t) (n = 5 rats, solution U, 500 mg/mL, read-out: AUC0-24 h): 3.74 ± 0.78 µM·h | AUC(0-t) (n = 5 rats, solution U, 500 mg/mL, read-out: AUC0-168 h): 29.8 ± 7.5 µM·h | AUC(0-t) (n = 5 rats, solution U, 500 mg/mL, read-out: AUC0-336 h): 63.2 ± 20.7 µM·h | AUC(0-t) (n = 5 rats, solution U, 500 mg/mL, read-out: AUC0-672 h): 159 ± 77 µM·h | AUC(0-t) (n = 5 rats, solution U, 500 mg/mL, read-out: AUC0-1008 h): 338 ± 141 µM·h | AUC(0-t) (n = 5 rats, solution U, 500 mg/mL, read-out: AUC0-1344 h): 409 ± 159 µM·h | AUC(0-t) (n = 5 rats, solution U, 500 mg/mL, read-out: AUC0-1680 h): 529 ± 194 µM·h | AUC(0-t) (n = 5 rats, solution U, 500 mg/mL, read-out: AUC0-2352 h): 610 ± 215 µM·h | AUC(0-t) (n = 5 rats, solution U, 500 mg/mL, read-out: AUC0-3024 h): 669 ± 233 µM·h | AUC(0-t) (n = 5 rats, solution U, 500 mg/mL, read-out: AUC0-3696 h): 692 ± 233 µM·h | AUC(0-t) (n = 5 rats, solution U, 500 mg/mL, read-out: AUC0-4704 h): 728 ± 249 µM·h | AUC(0-t) (n = 5 rats, solution U, 500 mg/mL, read-out: AUC0-5376 h): 756 ± 256 µM·h | AUC(0-t) (n = 5 rats, solution U, 500 mg/mL, read-out: AUC0-6048 h): 781 ± 261 µM·h | AUC(0-t) (n = 5 rats, solution U, 500 mg/mL, read-out: AUC0-6720 h): 802 ± 266 µM·h | AUC (n = 3 rats, solution R, 400 mg/mL, read-out: AUC0-6720n): 1007 ± 8 µM·h | Tmax [1]: 18.8 ± 17.5 days
